US20260183297A1, “SELECTION OF PATIENTS FOR THE TREATMENT OF FADS1-MEDIATED DISEASES OR DISORDERS USING FADS-1 INHIBITORS” (AMGEN INC., priority 2022, published 2026)
Marks after values point to notes of the source that are not given here.

Experiment: Fatty acid concentration and composition of plasma lipid subfractions (GC) of Compound A-treated DIO mice
Format: in vivo, mouse
Procedure: FIG. 16(b) provides fatty acid composition of total plasma and each of the 4 plasma lipid subfractions of vehicle treated (WT) and 30 mg/kg Compound A-treated WT DIO mice (WT+A). (a-b) n=3 samples per group (each sample pooled from 2 mice). (a) Data are shown as minimum to maximum. t-test *P<0.05, **P<0.01, ***P<0.001.

[1] = DIO mouse plasma, Cholesterol ester, 30 mg/kg, GC, mean
[2] = DIO mouse plasma, Cholesterol ester, 30 mg/kg, GC, mean % composition
[3] = DIO mouse plasma, Free fatty acids, 30 mg/kg, GC, mean
[4] = DIO mouse plasma, Free fatty acids, 30 mg/kg, GC, mean % composition
[5] = DIO mouse plasma, Phospholipids, 30 mg/kg, GC, mean
[6] = DIO mouse plasma, Phospholipids, 30 mg/kg, GC, mean % composition

## COc1ccn2c(=O)c(-c3cnn(CC(F)(F)C(F)(F)F)c3)c(C(F)(F)F)nc2c1 [Compound A, 8-methoxy-3-(1-(2,2,3,3,3-pentafluoropropyl)-1H-pyrazol-4-yl)-2-(trifluoromethyl)-4H-pyrido[1,2-a]pyrimidin-4-one]
Compound A-treated DIO mice, plasma
  EPA/AA ratio in all four lipid subfractions: increased
[1]
  C14:0 concentration, Cholesterol ester: 29.9 µg/mL
  C16:0 concentration, Cholesterol ester: 90.5 µg/mL
  C16:1n7 concentration, Cholesterol ester: 27.7 µg/mL
  C16:1n7t concentration, Cholesterol ester: 2.6 µg/mL
  C18:0 concentration, Cholesterol ester: 50.3 µg/mL
  C18:1n9 concentration, Cholesterol ester: 113 µg/mL
  C18:1t concentration, Cholesterol ester: 8.1 µg/mL
  C18:2n6 concentration, Cholesterol ester: 516 µg/mL
  C18:2n6t concentration, Cholesterol ester: 10.4* μg mL^−1
  C18:3n3 concentration, Cholesterol ester: 3.0 µg/mL
  C18:3n6 concentration, Cholesterol ester: 20.4* μg mL^−1
  C20:0 concentration, Cholesterol ester: 1.2 µg/mL
  C20:1n9 concentration, Cholesterol ester: 0.6 µg/mL
  C20:2n6 concentration, Cholesterol ester: 1.4 µg/mL
  C20:3n6 concentration, Cholesterol ester: 124*** μg mL^−1
  C20:5n3 concentration, Cholesterol ester: 2.8* μg mL^−1
  C22:0 concentration, Cholesterol ester: 1.3 µg/mL
  C22:4n6 concentration, Cholesterol ester: 1.5 µg/mL
  C22:5n3 concentration, Cholesterol ester: 31.0 µg/mL
  C22:5n6 concentration, Cholesterol ester: 1.7 µg/mL
  C22:6n3 concentration, Cholesterol ester: 37.4* μg mL^−1
  C24:0 concentration, Cholesterol ester: 1.2 µg/mL
  C24:1n9 concentration, Cholesterol ester: 2.6 µg/mL
  Total fatty acids concentration, Cholesterol ester: 1150* μg mL^−1
[2]
  C14:0 composition, Cholesterol ester: 2.61* %
  C16:0 composition, Cholesterol ester: 7.89*** %
  C16:1n7 composition, Cholesterol ester: 2.39* %
  C16:1n7t composition, Cholesterol ester: 0.23** %
  C18:0 composition, Cholesterol ester: 4.41* %
  C18:1n9 composition, Cholesterol ester: 9.73* %
  C18:1t composition, Cholesterol ester: 0.7*** %
  C18:2n6 composition, Cholesterol ester: 44.7*** %
  C18:2n6t composition, Cholesterol ester: 0.9*** %
  C18:3n3 composition, Cholesterol ester: 0.27%
  C18:3n6 composition, Cholesterol ester: 1.76*** %
  C20:0 composition, Cholesterol ester: 0.1%
  C20:1n9 composition, Cholesterol ester: 0.05%
  C20:2n6 composition, Cholesterol ester: 0.12%
  C20:3n6 composition, Cholesterol ester: 10.8*** %
  C20:4n6 composition, Cholesterol ester: 6.34*** %
  C20:5n3 composition, Cholesterol ester: 0.25%
  C22:0 composition, Cholesterol ester: 0.12%
  C22:4n6 composition, Cholesterol ester: 0.13%
  C22:5n3 composition, Cholesterol ester: 2.71* %
  C22:5n6 composition, Cholesterol ester: 0.14%
  C22:6n3 composition, Cholesterol ester: 3.26** %
  C24:0 composition, Cholesterol ester: 0.11%
  C24:1n9 composition, Cholesterol ester: 0.23%
[3]
  C14:0 concentration, Free fatty acids: 18.8 µg/mL
  C16:0 concentration, Free fatty acids: 132.7 µg/mL
  C16:1n7 concentration, Free fatty acids: 8.7 µg/mL
  C16:1n7t concentration, Free fatty acids: 0.5 µg/mL
  C18:0 concentration, Free fatty acids: 76.8 µg/mL
  C18:1n9 concentration, Free fatty acids: 98.1* μg mL^−1
  C18:1t concentration, Free fatty acids: 2.5 µg/mL
  C18:2n6 concentration, Free fatty acids: 38.5 µg/mL
  C18:2n6t concentration, Free fatty acids: 3.3 µg/mL
  C18:3n3 concentration, Free fatty acids: 1.6 µg/mL
  C18:3n6 concentration, Free fatty acids: 1.2 µg/mL
  C20:0 concentration, Free fatty acids: 1.8 µg/mL
  C20:1n9 concentration, Free fatty acids: 2.8 µg/mL
  C20:2n6 concentration, Free fatty acids: 1.1 µg/mL
  C20:3n6 concentration, Free fatty acids: 8.1** μg mL^−1
  C20:4n6 concentration, Free fatty acids: 2.9*** μg mL^−1
  C20:5n3 concentration, Free fatty acids: 8.3 µg/mL
  C22:0 concentration, Free fatty acids: 1.4 µg/mL
  C22:4n6 concentration, Free fatty acids: 1.1* μg mL^−1
  C22:5n3 concentration, Free fatty acids: 32.0 µg/mL
  C22:5n6 concentration, Free fatty acids: 0.4 µg/mL
  C22:6n3 concentration, Free fatty acids: 5.3 µg/mL
  C24:0 concentration, Free fatty acids: 1.0 µg/mL
  C24:1n9 concentration, Free fatty acids: 1.8 µg/mL
  Total fatty acids concentration, Free fatty acids: 451 µg/mL
[4]
  C14:0 composition, Free fatty acids: 4.15%
  C16:0 composition, Free fatty acids: 29.5%
  C16:1n7 composition, Free fatty acids: 1.91%
  C16:1n7t composition, Free fatty acids: 0.11%
  C18:0 composition, Free fatty acids: 17.1* %
  C18:1n9 composition, Free fatty acids: 21.8%
  C18:1t composition, Free fatty acids: 0.57%
  C18:2n6 composition, Free fatty acids: 8.61%
  C18:2n6t composition, Free fatty acids: 0.76%
  C18:3n3 composition, Free fatty acids: 0.34%
  C18:3n6 composition, Free fatty acids: 0.26* %
  C20:0 composition, Free fatty acids: 0.39%
  C20:1n9 composition, Free fatty acids: 0.61%
  C20:2n6 composition, Free fatty acids: 0.25%
  C20:3n6 composition, Free fatty acids: 1.82%
  C20:4n6 composition, Free fatty acids: 0.64*** %
  C20:5n3 composition, Free fatty acids: 1.75%
  C22:0 composition, Free fatty acids: 0.31%
  C22:4n6 composition, Free fatty acids: 0.25* %
  C22:5n3 composition, Free fatty acids: 7.14%
  C22:5n6 composition, Free fatty acids: 0.10%
  C22:6n3 composition, Free fatty acids: 1.15%
  C24:0 composition, Free fatty acids: 0.22%
  C24:1n9 composition, Free fatty acids: 0.39%
[5]
  C14:0 concentration, Phospholipids: 5.3 µg/mL
  C16:0 concentration, Phospholipids: 591 µg/mL
  C16:1n7 concentration, Phospholipids: 7.7 µg/mL
  C18:0 concentration, Phospholipids: 302*** μg mL^−1
  C18:1n9 concentration, Phospholipids: 260 µg/mL
  C18:1t concentration, Phospholipids: 3.9 µg/mL
  C18:2n6 concentration, Phospholipids: 400** μg mL^−1
  C18:2n6t concentration, Phospholipids: 4.5 µg/mL
  C18:3n3 concentration, Phospholipids: 1.0 µg/mL
  C18:3n6 concentration, Phospholipids: 4.3 µg/mL
  C20:0 concentration, Phospholipids: 1.4** μg mL^−1
  C20:1n9 concentration, Phospholipids: 5.8 µg/mL
  C20:2n6 concentration, Phospholipids: 9.0 µg/mL
  C20:3n6 concentration, Phospholipids: 382*** μg mL^−1
  C20:4n6 concentration, Phospholipids: 31.2*** μg mL^−1
  C20:5n3 concentration, Phospholipids: 1.2* μg mL^−1
  C22:0 concentration, Phospholipids: 1.8 µg/mL
  C22:4n6 concentration, Phospholipids: 2.1*** μg mL^−1
  C22:5n3 concentration, Phospholipids: 12.8 µg/mL
  C22:5n6 concentration, Phospholipids: 1.8*** μg mL^−1
  C22:6n3 concentration, Phospholipids: 70.2** μg mL^−1
  C24:0 concentration, Phospholipids: 1.0 µg/mL
  C24:1n9 concentration, Phospholipids: 3.3 µg/mL
  Total fatty acids concentration, Phospholipids: 2105* μg mL^−1
[6]
  C14:0 composition, Phospholipids: 0.25* %
  C16:0 composition, Phospholipids: 28.1** %
  C16:1n7 composition, Phospholipids: 0.36** %
